Measured values reported in patent US8227636B2, “Histone deacetylase inhibitor prodrugs” (Merck HDAC Research, LLC, priority 2004, dated 2012).

Tests used:
[1] = tested on: murine erythroleukemia cell line SC9; assay: MTS assay (Cell Titer 96 Aqueous One Solution Cell Proliferation Assay); assay type: cell-based; settings: Mus musculus; SC9 cells, 48 hours incubation; unit inferred
Protocol: The novel compounds of the present invention were tested for their ability to inhibit proliferation of the murine erythroleukemia cell line SC9. The MTS assay, also referred to as the Cell Titer 96 Aqueous One Solution Cell Proliferation Assay, is a colorimetric method for determining the number of viable cells in proliferation, cytotoxicity, or chemosensitivity assays. […] Murine erythroleukemia cells (SC-9) were incubated with vehicle or increasing concentrations of compound for 48 hours.

[2] = target: T1, histone deacetylase, subtype 1 (HDAC1) (Homo sapiens, UniProt Q13547); assay: HDAC1-Flag assay (in vitro deacetylation assay); assay type: biochemical; settings: for inhibition at 10 µM: 10 μM compound, read-out: HDAC1 % INH 10 μM; for inhibition at 100 µM: 100 μM compound, read-out: HDAC1 % INH 100 μM; for IC50: epitope-tagged human HDAC1 complex, substrate at Km, fluorogenic acetylated lysine substrate, read-out: HDAC1 IC50 Ave
T1 construct: Flag; made in house
T1 sequence (Q13547 whole entry): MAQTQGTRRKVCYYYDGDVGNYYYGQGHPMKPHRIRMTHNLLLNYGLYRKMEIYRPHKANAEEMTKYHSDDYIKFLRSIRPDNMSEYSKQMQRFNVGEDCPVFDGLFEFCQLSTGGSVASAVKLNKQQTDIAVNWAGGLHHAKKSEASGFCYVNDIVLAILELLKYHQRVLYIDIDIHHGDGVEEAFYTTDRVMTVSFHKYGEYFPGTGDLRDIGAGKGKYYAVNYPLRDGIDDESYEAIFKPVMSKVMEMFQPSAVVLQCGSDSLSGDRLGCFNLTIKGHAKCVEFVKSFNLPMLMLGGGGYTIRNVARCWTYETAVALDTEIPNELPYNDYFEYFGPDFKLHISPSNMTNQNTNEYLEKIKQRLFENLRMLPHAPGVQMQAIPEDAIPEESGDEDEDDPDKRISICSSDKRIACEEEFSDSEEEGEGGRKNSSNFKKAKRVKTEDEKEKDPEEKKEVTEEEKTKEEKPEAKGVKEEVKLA
Protocol: Novel compounds were tested for their ability to inhibit histone deacetylase, subtype 1 (HDAC1) using an in vitro deacetylation assay. The enzyme source for this assay was an epitope-tagged human HDAC1 complex immuno-purified from stably expressing mammalian cells. The substrate consisted of a commercial product containing an acetylated lysine side chain (BIOMOL Research Laboratories, Inc., Plymouth Meeting, Pa.). Upon deacetylation of the substrate by incubation with the purified HDAC1 complex, a fluorophore is produced that is directly proportional to the level of deacetylation.

Row | IC50 [1] | inhibition at 10 µM [2] | inhibition at 100 µM [2] | IC50 [2] | SMILES
1 | 785 ± 4.9 nM | 45% | 79% | 51900 nM | O=C(CCCCCCC(=O)Nc1ccccc1)NOC(=O)CCCCCCC(=O)Nc1ccccc1 [I, Octanedioic acid phenylamide(7-phenylcarbamoyl-heptanoyloxy)-amide]
2 | 252 ± 56.5 nM | 87% | 97% | 582 ± 312 nM | O=C(CCCCCCC(=O)Nc1ccccc1)NOC(=O)c1cccnc1 [III, Octanedioic acid phenylamide(pyridine-3-carbonyloxy)-amide]
3 | 1760 nM | 10% | 50% | – | CCCCc1ccc(C(=O)ONC(=O)CCCCCCC(=O)Nc2ccccc2)cc1 [IV, Octanedioic acid (4-butyl-benzoyloxy)-amide phenylamide]
4 | 1200 nM | 20% | 60% | – | O=C(CCCCCCC(=O)Nc1ccccc1)NOC(=O)c1ccccc1 [IX, Octanedioic acid benzoyloxy-amide phenylamide]
5 | 491 ± 327 nM | 64% | 90% | 1680 ± 1200 nM | O=C(CCCCCCC(=O)Nc1ccccc1)NOC(=O)CCc1ccccc1 [V, Octanedioic acid phenylamide(3-phenyl-propionyloxy)-amide]
6 | 1540 nM | 27% | 62% | – | O=C(CCCCCCC(=O)Nc1ccccc1)NOC(=O)CCCc1ccccc1 [VI, Octanedioic acid phenylamide(4-phenyl-butyryloxy)-amide]
7 | 648 nM | 26% | 45% | – | O=C(CCCCCCC(=O)Nc1ccccc1)NOC(=O)/C=C/c1ccccc1 [VII, Octanedioic acid (3-phenyl-acryloyloxy)-amide phenylamide]
8 | 1380 nM | 94% | 99% | – | O=C(CCCCCCC(=O)Nc1ccccc1)NOC(=O)c1ccc(-c2ccccc2)cc1 [VIII, Octanedioic acid (biphenyl-4-carbonyloxy)-amide phenylamide]
9 | 1790 nM | 9% | 22% | – | O=C(CCCCCCC(=O)Nc1ccccc1)NOC(=O)c1ccc2ccccc2c1 [X, Octanedioic acid (naphthalene-2-carbonyloxy)-amide phenylamide]
10 | 5220 nM | 5% | 5% | – | O=C(CCCCCCC(=O)Nc1ccccc1)NOC(=O)c1cccc2ccccc12 [XI, Octanedioic acid (naphthalene-1-carbonyloxy)-amide phenylamide]
11 | 494 nM | 20% | 43% | – | COc1cccc(C(=O)ONC(=O)CCCCCCC(=O)Nc2ccccc2)c1 [XII, Octanedioic acid (3-methoxy-benzoyloxy)-amide phenylamide]
12 | 748 nM | 21% | 65% | – | COc1ccc(C(=O)ONC(=O)CCCCCCC(=O)Nc2ccccc2)cc1 [XIII, Octanedioic acid (4-methoxy-benzoyloxy)-amide phenylamide]
13 | 862 nM | 38% | 74% | – | Cc1ccc(C(=O)ONC(=O)CCCCCCC(=O)Nc2ccccc2)cc1 [XIV, Octanedioic acid (4-methyl-benzoyloxy)-amide phenylamide]
14 | 446 nM | 87% | 96% | – | CC(C)(C)OC(=O)N[C@@H](Cc1ccccc1)C(=O)ONC(=O)CCCCCCC(=O)Nc1ccccc1 [XIX, [1-Benzyl-2-oxo-2-(7-phenylcarbamoyl-heptanoylaminooxy)-ethyl]-carbamic acid tert-butyl ester]
15 | 592 nM | 23% | 48% | – | COc1ccccc1C(=O)ONC(=O)CCCCCCC(=O)Nc1ccccc1 [XV, Octanedioic acid (2-methoxy-benzoyloxy)-amide phenylamide]
16 | 434 nM | 24% | 36% | – | O=C(CCCCCCC(=O)Nc1ccccc1)NOC(=O)c1ccc(Cl)cc1 [XVI, Octanedioic acid (4-chloro-benzoyloxy)-amide phenylamide]
17 | 753 nM | 94% | 99% | – | O=C(CCCCCCC(=O)Nc1ccccc1)NOC(=O)[C@H](Cc1ccccc1)NC(=O)OCc1ccccc1 [XVII, [1-Benzyl-2-oxo-2-(7-phenylcarbamoyl-heptanoylaminooxy)-ethyl]-carbamic acid benzyl ester]
18 | 443 nM | 78% | 93% | – | O=C(CCCCCCC(=O)Nc1ccccc1)NOC(=O)[C@@H](Cc1ccccc1)NC(=O)OCc1ccccc1 [XVIII, [1-Benzyl-2-oxo-2-(7-phenylcarbamoyl-heptanoylaminooxy)-ethyl]-carbamic acid benzyl ester]

Row | SMILES | IC50 [1] | inhibition at 10 µM [2] | inhibition at 100 µM [2] | IC50 [2]
19 | CC(=O)ONC(=O)CCCCCCC(=O)Nc1ccccc1 [II, Octanedioic acid acetoxy-amide phenylamide] | 246 ± 78.4 nM | -17% | 2% | –
